The source of these data is ChEMBL document CHEMBL5131467, “Multivalent peptide dendrimers inhibit the fusion of viral-cellular membranes and the cellular NF-κB signaling pathway” (Eur J Med Chem, 2022).

Where a SMILES comes first, the peptide text is derived from it. Bridges are numbered along the chain shown (N, C = ends). Roman numbers before positions name the chains, in order. Side-chain parts run from the residue outwards. [ ]: non-standard residue; d: D form. The star is where a group is joined. ξ: configuration not given here. Acetyl(2-naphthyl) = O=C(Cc1ccc2ccccc2c1)*; Fmoc = O=C(OCC1c2ccccc2-c2ccccc21)*; ξW = NC(Cc1c[nH]c2ccccc12)C(=O)O; Lauroyl = CCCCCCCCCCCC(=O)*; Nonanoyl = CCCCCCCCC(=O)*; Octanoyl = CCCCCCCC(=O)*; ξK = NCCCCC(N)C(=O)O

For series [1], the system named is Influenza A virus. Kind of series: Antiviral activity against Influenza A virus (A/Puerto Rico/8/1934(H1N1)) infected in MDCK cells assessed as reduction in virus induced cytopathic effect pretreated with compound incubated for 1 hrs by MTT assay. The class given is functional, organism-based. Background: Protection from cytopathic effect is a common read-out in antiviral testing.

Series [2] can be described thus: Cytotoxicity against MDCK cells incubated for 1 hr by MTT assay. The class given is toxicity, cell-based, Canis lupus familiaris. The settings on record: dog. In general terms: Formazan colour is commonly taken as a measure of viable cells.
Series [3] can be described thus: Selectivity index, ratio of CC50 for MDCK cells to IC50 antiviral activity against Influenza A virus (A/Puerto Rico/8/1934(H1N1)) infected in MDCK cells assessed as reduction in virus induced cytopathic effect pre-treated with virus. The class given is toxicity, cell-based. The settings on record: dog, read-out: Selectivity Index.
Series [4] in a line: Cytotoxicity against MDCK cells by CCK-8 assay. The class given is toxicity, cell-based, Canis lupus familiaris. The settings on record: dog.
Series [5] concerns Influenza A virus. Nature of the series: Antiviral activity against Influenza A virus (A/Puerto Rico/8/1934(H1N1)) infected in MDCK cells assessed as reduction in virus induced cytopathic effect during infection incubated for 1 hr by MTT assay. The class given is functional, organism-based.
For series [6], the system named is Influenza A virus. Kind of series: Antiviral activity against Influenza A virus (A/Puerto Rico/8/1934(H1N1)) infected in MDCK cells assessed as reduction in virus induced cytopathic effect after infection incubated for 1 hr by MTT assay. Format: functional, organism-based.
Series [7] relates to Influenza A virus. Nature of the series: Antiviral activity against Influenza A virus (A/Puerto Rico/8/1934(H1N1)) infected in MDCK cells assessed as reduction in virus induced cytopathic effect pre-treated with virus followed by cell infection for 1 hr by MTT assay. The class given is functional, organism-based.
The subject of series [8] is RAW264.7. Kind of series: Anti-inflammatory activity against mouse RAW264.7 cells assessed as reduction in Influenza A virus (A/Puerto Rico/8/1934(H1N1)) induced TNF alpha level at 5 ug/ml by ELISA method. Format: functional. The settings on record: dose 5 µg/ml. Background: ELISA stands for enzyme-linked immunosorbent assay.
For series [9], the system named is RAW264.7. Kind of series: Anti-inflammatory activity against mouse RAW264.7 cells assessed as reduction in LPS induced TNF alpha level at 5 ug/ml by ELISA method. The class given is functional. The conditions noted are these: dose 5 µg/ml.
The next series deals with Influenza B virus. Kind of series: Antiviral activity against Influenza B virus 699[…] clinical isolate infected in MDCK cells incubated for 1 hr by MTT assay. The class given is functional, organism-based.
For series [10], the system named is Influenza A virus. Nature of the series: Antiviral activity against Influenza A virus A/FM/1/47 infected in MDCK cells incubated for 1 hr by MTT assay. Format: functional, organism-based. The settings on record: A/FM/1/47, MDCK.
Series [11] deals with RAW264.7. Nature of the series: Anti-inflammatory activity against mouse RAW264.7 cells assessed as reduction in LPS induced TNF alpha level at 1 ug/ml by ELISA method. The class given is functional. The conditions noted are these: dose 1 µg/ml.
Series [12] has as its system Influenza A virus. Kind of series: Antiviral activity against Influenza A virus 699(H3) clinical isolate infected in MDCK cells incubated for 1 hr by MTT assay. Format: functional, organism-based.
Series [13] relates to RAW264.7. Nature of the series: Anti-inflammatory activity against mouse RAW264.7 cells assessed as reduction in Influenza A virus (A/Puerto Rico/8/1934(H1N1)) induced TNF alpha level at 1 ug/ml by ELISA method. The class given is functional. The settings on record: dose 1 µg/ml.
The subject of series [14] is Influenza A virus. Kind of series: Antiviral activity against Influenza A virus A/Aichi/2/68(H3N2) infected in MDCK cells incubated for 1 hr by MTT assay. Format: functional, organism-based.

Regarding `CC(C)CCC[C@@H](C)[C@H]1CC[C@H]2[C@@H]3CC=C4C[C@@H](OC(=O)CN[C@@H](CCCCN)C(=O)N[C@@H](CCCCN)C(=O)N[C@@H](Cc5c[nH]c6ccccc56)C(=O)N[C@@H](CCCCN)C(N)=O)CC[C@]4(C)[C@H]3CC[C@]12C`, the IC50 with Influenza A virus [1] is over 10000 nM; in the series with Influenza A virus [5], over 5000 nM; in the series on Influenza A virus [6], over 10 µM; in the series on Influenza A virus [7], 1610 nM. Also, the CC50 at 1 h in series [2] came out at 44.3 µM. Moreover, in series [3], the selectivity ratio was determined as 30.5. The CC50 in [4] was found to be 39.1 µM.

`CCOC(=O)c1c(CSc2ccccc2)n(C)c2cc(Br)c(O)c(CN(C)C)c12.Cl` gave a CC50 at 1 h in series [2] of 32.9 µM. The Activity in the series on RAW264.7 [8] turned out to be 294.9 pg/mL; in the series with RAW264.7 [9], 400.5 pg/mL; with RAW264.7 [11] it was 320.5 pg/mL; in the series with RAW264.7 [13] it was 206.5 pg/mL. Besides, the IC50 turned out to be 410 nM with Influenza B virus; 1450 nM with Influenza A virus [10]; 1560 nM in the series with Influenza A virus [12]; 1180 nM in the series with Influenza A virus [14]; 360 nM in the series with Influenza A virus [7]. For the same molecule, the selectivity ratio in [3] stood at 91.4.

In the case of `NCCCC[C@H](NC(=O)[C@H](Cc1c[nH]c2ccccc12)NC(=O)[C@H](CCCCN)NC(=O)[C@H](CCCCN)NC(=O)OCC1c2ccccc2-c2ccccc21)C(=O)O` (Fmoc-KKWK-OH), the CC50 at 1 h in [2] is over 200 µM. Moreover, the CC50 in series [4] turned out to be 200 µM. Also, the IC50 with Influenza A virus [7] was determined as 4020 nM.

Regarding `CCCCCCCCCCCC(=O)N[C@@H](CCCCN)C(=O)N[C@@H](Cc1c[nH]c2ccccc12)C(=O)N[C@@H](CCCCN)C(=O)N[C@@H](CCCCN)C(=O)NCCCC[C@H](NC(=O)[C@H](CCCCN)NC(=O)[C@H](CCCCN)NC(=O)[C@H](Cc1c[nH]c2ccccc12)NC(=O)[C@H](CCCCN)NC(=O)CCCCCCCCCCC)C(=O)NCCCC[C@H](NC(=O)[C@H](CCCCNC(=O)[C@H](CCCCN)NC(=O)[C@H](CCCCN)NC(=O)[C@H](Cc1c[nH]c2ccccc12)NC(=O)[C@H](CCCCN)NC(=O)CCCCCCCCCCC)NC(=O)[C@H](CCCCN)NC(=O)[C@H](CCCCN)NC(=O)[C@H](Cc1c[nH]c2ccccc12)NC(=O)[C@H](CCCCN)NC(=O)CCCCCCCCCCC)C(=O)NCC(=O)O` (I: Lauroyl-KWKKK([Lys-Lys-Trp-Lys-Lauroyl])KG-OH / II: Lauroyl-KWKKK([Lys-Lys-Trp-Lys-Lauroyl]); amide I:6-II:C), the IC50 in the series with Influenza A virus [1] is 380 nM; with Influenza A virus [5], 170 nM; with Influenza A virus [6], over 5 µM; in the series with Influenza A virus [7] it was 340 nM. In addition, in [2], the CC50 at 1 h amounted to 1.88 µM. Besides, the selectivity ratio in series [3] stood at 5.5.

`CCCCCCCCC(=O)NC(CCCCN)C(=O)NC(Cc1c[nH]c2ccccc12)C(=O)NC(CCCCN)C(=O)NC(CCCCN)C(=O)N[C@@H](CCCCNC(=O)[C@H](CCCCN)NC(=O)[C@H](CCCCN)NC(=O)[C@H](Cc1c[nH]c2ccccc12)NC(=O)[C@H](CCCCN)NC(=O)CCCCCCCC)C(=O)NCCCC[C@H](NC(=O)[C@H](CCCCNC(=O)[C@H](CCCCN)NC(=O)[C@H](CCCCN)NC(=O)[C@H](Cc1c[nH]c2ccccc12)NC(=O)[C@H](CCCCN)NC(=O)CCCCCCCC)NC(=O)[C@H](CCCCN)NC(=O)[C@H](CCCCN)NC(=O)[C@H](Cc1c[nH]c2ccccc12)NC(=O)[C@H](CCCCN)NC(=O)CCCCCCCC)C(=O)NCC(=O)O` (stereo partly drawn) (I: Nonanoyl-KWKKK([Lys-Lys-Trp-Lys-Nonanoyl])KG-OH / II: Nonanoyl-[ξK][ξW][ξK][ξK]K([Lys-Lys-Trp-Lys-Nonanoyl]); amide I:6-II:C): the IC50 with Influenza A virus [1] was 580 nM; in the series with Influenza A virus [5], 1480 nM; in the series on Influenza A virus [6] it was over 5 µM; in the series on Influenza A virus [7], 770 nM. Also, half-maximal cytotoxicity in [2] (CC50 at 1 h) was put at 3.48 µM. The selectivity ratio in [3] came out at 4.5.

As for `CCCCCCCC(=O)N[C@@H](CCCCN)C(=O)N[C@@H](CCCCN)C(=O)N[C@@H](Cc1c[nH]c2ccccc12)C(=O)N[C@@H](CCCCN)C(=O)NCCCC[C@H](NC(=O)[C@H](CCCCN)NC(=O)[C@H](Cc1c[nH]c2ccccc12)NC(=O)[C@H](CCCCN)NC(=O)[C@H](CCCCN)NC(=O)CCCCCCC)C(=O)NCCCC[C@H](NC(=O)[C@H](CCCCNC(=O)[C@H](CCCCN)NC(=O)[C@H](Cc1c[nH]c2ccccc12)NC(=O)[C@H](CCCCN)NC(=O)[C@H](CCCCN)NC(=O)CCCCCCC)NC(=O)[C@H](CCCCN)NC(=O)[C@H](Cc1c[nH]c2ccccc12)NC(=O)[C@H](CCCCN)NC(=O)[C@H](CCCCN)NC(=O)CCCCCCC)C(=O)NCC(=O)O` (I: Octanoyl-KKWKK([Lys-Trp-Lys-Lys-Octanoyl])KG-OH / II: Octanoyl-KKWKK([Lys-Trp-Lys-Lys-Octanoyl]); amide I:6-II:C), the 50% inhibitory concentration (IC50) is 420 nM with Influenza A virus [1], 640 nM with Influenza A virus [5], over 5 µM in the series on Influenza A virus [6] and 570 nM with Influenza A virus [7]. Half-maximal cytotoxicity in [2] (CC50 at 1 h) was put at 8.56 µM. Further, the selectivity ratio in [3] stood at 15.

Take `NCCCC[C@H](NC(=O)[C@H](Cc1c[nH]c2ccccc12)NC(=O)[C@H](CCCCN)NC(=O)[C@H](CCCCN)NC(=O)Cc1ccc2ccccc2c1)C(=O)O` ({Acetyl(2-naphthyl)}-KKWK-OH): the 50% cytotoxic concentration (CC50) at 1 h in series [2] is over 200 µM. Further, the midpoint of cytotoxicity in series [4], the CC50, lay at 200 µM. In the series on Influenza A virus [7], the IC50 was found to be 4040 nM.

What is called IC50 is the midpoint of a concentration-inhibition curve. By CC50 is commonly meant the concentration giving 50% cytotoxicity. A lower CC50 goes with harm at low concentration.
